ChEMBL document CHEMBL3102775, “UK-1 and structural analogs are potent inhibitors of hepatitis C virus replication” (Bioorg Med Chem Lett, 2014)
pEC50, pIC50: −log10 of the molar value. The source made the active and inactive calls. No cut-off for these calls is given here.

What was measured:
[1] = test system: Human immunodeficiency virus 1; assay: Antiviral activity against HIV1; type: functional, organism-based
[2] = Binding affinity to double stranded DNA assessed as effect on Eco-RI-digested pT7-7 plasmid mobilization at 20 to 500 uM after 60 mins by agarose gel mobility assay
[3] = Inhibition of HCV NS3 NTPase/helicase domain expressed in Escherichia coli BL21 using dsDNA as substrate assessed as strand separation of [32P]-labeled oligonucleotides after 30 mins by SDS-gel electrophoresis; design: species or system Hepacivirus hominis
Hepatitis C virus [4] = assay: Antiviral activity against HCV infected in human Huh7ET cells assessed as inhibition of viral replication by luciferase reporter gene assay/RNA blot hybridization analysis; type: functional, organism-based, Hepacivirus hominis; settings: Huh-7
[5] = Inhibition of HCV NS3 NTPase/helicase domain expressed in Escherichia coli BL21 using dsRNA as substrate assessed as strand separation of [32P]-labeled oligonucleotides after 30 mins by SDS-gel electrophoresis; design: species or system Hepacivirus hominis
[6] = Binding affinity to double stranded RNA assessed as effect on Eco-RI-digested pT7-7 plasmid mobilization at 20 to 500 uM after 60 mins by agarose gel mobility assay
[7] = Inhibition of Dengue virus helicase
[8] = Selectivity index, ratio of CC50 for human Huh7ET cells to EC50 for HCV infected in human Huh7ET cells; design: species or system Huh-7
[9] = Cytotoxicity against human Huh7ET cells by neutral red assay; type: cell-based, Huh-7
[10] = Inhibition of HCV ATPase activity of NS3 NTPase/helicase domain expressed in Escherichia coli BL21 after 30 mins by thin layer chromatography in presence of [gamma-32P]ATP; design: species or system Hepacivirus hominis
Hepacivirus hominis = assay: Inhibition of HCV NS5B RNA dependent RNA polymerase at 100 uM
[11] = Selectivity index, ratio of CC50 for human Huh7ET cells by luciferase reporter gene assay to EC50 for HCV infected in human Huh7ET cells by luciferase reporter gene assay; design: species or system Huh-7
[12] = Cytotoxicity against human Huh7ET cells by luciferase reporter gene assay; type: cell-based; settings: huh-7
Hepatitis C virus [13] = assay: Antiviral activity against HCV infected in human Huh7ET cells assessed as inhibition of viral replication by luciferase reporter gene assay; type: functional, organism-based, Hepacivirus hominis; settings: Huh-7

Row | SMILES | Activity [1] | Activity [2] | pIC50 [3] | pEC50 (Hepatitis C virus [4]) | pIC50 [5] | Activity [6] | pIC50 [7] | Ratio CC50/EC50 [8] | CC50 ([9]; Huh7ET cells) | pIC50 [10] | inhibition (Hepacivirus hominis) | CC50 ([9]; huh-7) | Ratio CC50/EC50 [11] | CC50 [12] | pEC50 (Hepatitis C virus [13])
1 | COC(=O)c1cccc2oc(-c3ccc4c(OCc5ccccc5)cccc4c3O)nc12 | inactive | inactive | 5.42 | 5.68 | 4.70 | inactive | < 3.15 | >10 | > 20 µM | < 2.92 | < 30% | – | – | – | –
2 | COC(=O)c1cccc2oc(-c3cccc4oc(-c5ccccc5O)nc34)nc12 | – | – | 3.42 | 6.11 | < 2.92 | – | < 3.15 | 22 | – | < 2.92 | < 30% | 17 µM | – | – | –
3 | COC(=O)c1cccc2oc(-c3ccc4ccccc4c3O)nc12 | inactive | – | 3.27 | 6.28 | 3.23 | – | < 3.15 | 4.7 | – | < 2.92 | < 30% | 2.5 µM | – | – | –
4 | COC(=O)c1cccc2oc(-c3ccc4ccc(OCc5ccccc5)cc4c3O)nc12 | inactive | inactive | 5.59 | 6.27 | 4.70 | inactive | < 3.15 | >37 | > 20 µM | < 2.92 | < 30% | – | – | – | –
5 | O=C(O)c1cccc2oc(-c3ccccc3O)nc12 | inactive | – | < 2.74 | 6.28 | < 2.74 | – | < 3.15 | 6.6 | – | < 2.92 | < 30% | 3.5 µM | – | – | –
6 | CNC(=O)c1cccc2oc(-c3ccccc3O)nc12 | inactive | – | < 2.74 | – | < 2.74 | – | < 3.15 | – | – | < 2.92 | < 30% | – | 4.5 | 6.3 µM | 5.85
7 | COC(=O)c1cccc2oc(-c3ccccc3O)nc12 | inactive | – | < 2.74 | 6.30 | < 2.74 | – | < 3.15 | 11 | – | < 2.92 | < 30% | 5.4 µM | – | – | –
